Experimental data reported in patent US5912247A, “Quinazoline compound and anti-tumor agent containing said compound as an active ingredient” (Kanebo, Ltd., priority 1995, dated 1999).
Structures can show the parent of a compound that is named as a salt.

Tested on: Colon 26 solid tumor
Assay: Inhibitory activity of dye accumulation in the solid tumor tissue (inhibition of the tumor blood flow)
Type: in vivo, Male BALB/c mice
Set-up: key to Inhibitory activity of dye accumulation into solid tumor: +: The average absorbance in the test group is significantly smaller than the average absorbance in the control group.; -: There is no significant difference in the average absorbance between the test group and the control group
Conditions: intravenous, Evans blue 1 hour after administration
Procedure: Inhibitory activity of dye accumulation in the solid tumor tissue (inhibition of the tumor blood flow): a) Materials: Test Animal: Male BALB/c mice (weighing 21-27 g, six mice per group) Tumor: Colon 26 solid tumor b) Test Method: Colon 26 solid tumor was cut in a size of about 1 mm square. The pieces of solid tumor were treated with a 0.25% collagenase solution and 0.02% deoxyribonuclease solution at 37° C. for 1.5 hour to give a cell suspension of colon 26 solid tumor cells. The cell suspension was adjusted to 3×10^6 cells/ml and the cell suspension (100 μl) was subcutaneously inoculated on the right back of male BALB/c mice. Ten days after the transplantation, the longitudinal size of the tumor was measured, and when the longitudinal size of the tumor reached about 10 mm, the mice were randomized. To the mice in test groups, the test compound was intravenously administered in an amount of 10 mg/kg or 1.25 mg/kg. The test compound was administered in the form of a solution in saline (in the test solution of Test Compound BF and BK, an equimolar amount of fumaric acid was further added, and in the test solution of Test Compound BN, an equimolar amount of hydrochloric acid was further added). To the mice in the control group, only saline was administered intravenously. One hour after the administration, 3% Evans blue-saline solution was injected intravenously via the tail vein of the mice in a volume of 0.1 ml per 10 g of the body weight of mouse, and 5 minutes later the mice were killed by luxation of the cervical vertebrae. After removing the tumor, the tumor was weighed. To extract Evans blue, the tumor was suspensed in 0.5% aqueous sodium sulfate (1.5 ml per 1 g of the tumor) and acetone (3.5 ml per 1 g of tumor), and then the tumor was cut into small pieces. After allowing to stand at room temperature overnight, the suspension were centrifuged at 3,000 rpm for 10 minutes to extract Evans blue, and the absorbance of the supernatant was read at 630 nm. […] (-): There is no significant difference in the average absorbance between the test group and the control group.

SMILES	Inhibitory activity of dye accumulation into solid tumor (1.25 mg/kg)	Inhibitory activity of dye accumulation into solid tumor (10 mg/kg)
CC(=O)O.OCC(O)COc1nc(N2CCNCC2)nc2ccccc12 (racemic) [Compound BB, 4-[(RS)-(2,3-Dihydroxypropyl)oxy]-2-(1-piperazinyl)quinazoline monoacetate]	+	+
CC(=O)O.C[C@H](O)[C@@H](C)Oc1nc(N2CCNCC2)nc2ccccc12 (racemic) [Compound BC, 4-[(2RS,3SR)-(3-Hydroxybutan-2-yl)oxy]-2-(1-piperazinyl)quinazoline monoacetate]	+	+
C[C@@H](O)[C@H](O)COc1nc(N2CCNCC2)nc2ccccc12 (racemic) [Compound BF, 4-[(2RS,3RS)-(2,3-Dihydroxybutan-1-yl)oxy]-2-(1-piperazinyl)quinazoline]	+	+
OC[C@H](O)[C@H](O)COc1nc(N2CCNCC2)nc2ccccc12 (racemic) [Compound BK, 4-[(2RS,3SR)-(2,3,4-Trihydroxybutan-1-yl)oxy]-2-(1-piperazinyl)quinazoline]	+	+
CC(=O)O.O[C@@H]1CCC[C@H]1Oc1nc(N2CCNCC2)nc2ccccc12 (relative stereo) [Compound AA, 4-[trans-(2-Hydroxycyclopentan-1-yl)oxy]-2-(1-piperazinyl)quinazoline monoacetate]	+	+
CC(=O)O.O[C@H]1CCC[C@H]1Oc1nc(N2CCNCC2)nc2ccccc12 (relative stereo) [Compound AB, 4-[cis-(2-Hydroxycyclopentan-1-yl)oxy]-2-(1-piperazinyl)quinazoline monoacetate]	-	+
CC(=O)O.O[C@@H]1COC[C@H]1Oc1nc(N2CCNCC2)nc2ccccc12 (relative stereo) [Compound AF, 4-[trans-(4-Hydroxytetrahydrofuran-3-yl)oxy]-2-(1-piperazinyl)quinazoline monoacetate]	+	+
O[C@@H]1COC[C@@H]1Oc1nc(N2CCNCC2)nc2ccccc12 (relative stereo) [Compound AG, 4-[cis-(4-Hydroxytetrahydrofuran-3-yl)oxy]-2-(1-piperazinyl)quinazolinemonoacetate]	+	+
O[C@@H]1[C@@H](Oc2nc(N3CCNCC3)nc3ccccc23)CC[C@@H]1O (relative stereo) [Compound AL, 4-[(t-2,t-3-Dihydroxycyclopentan-r-1-yl)oxy]-2-(1-piperazinyl)quinazoline monoacetate]	+	+
O[C@@H]1[C@H](O)[C@@H](Oc2nc(N3CCNCC3)nc3ccccc23)C[C@H]1O (relative stereo) [Compound AO, 4-[(t-2,t-3,c-4-Trihydroxycyclopentan-r-1-yl)-oxy]-2-(1-piperazinyl)quinazoline 1/2 fumarate]	+	+
CC(=O)O.OC1CCC(Oc2nc(N3CCNCC3)nc3ccccc23)C1 (stereo not shown) [Compound AC, 4-[(3-Hydroxycyclopentan-1-yl)oxy]-2-(1-piperazinyl)quinazoline monoacetate]	+	+
O[C@H]1CCC[C@@H]1Oc1nc(N2CCNCC2)nc2ccccc12 [Compound AD, 4-[(1S,2S)-(2-Hydroxycyclopentan-1-yl)oxy]-2-(1-piperazinyl)quinazolinemonoacetate]	+	+
O[C@@H]1CCC[C@H]1Oc1nc(N2CCNCC2)nc2ccccc12 [Compound AE, 4-[(1R,2R)-(2-Hydroxycyclopentan-1-yl)oxy]-2-(1-piperazinyl)quinazolinemonoacetate]	+	+
CC(=O)O.O[C@H]1COC[C@@H]1Oc1nc(N2CCNCC2)nc2ccccc12 [Compound AH, 4-[(3S,4S)-(4-Hydroxytetrahydrofuran-3-yl)oxy]-2-(1-piperazinyl)quinazoline monoacetate]	+	+
O[C@@H]1COC[C@H]1Oc1nc(N2CCNCC2)nc2ccccc12 [Compound AJ, 4-[(3R,4R)-(4-Hydroxytetrahydrofuran-3-yl)-oxy]-2-(1-piperazinyl)quinazoline 1/2 hydrochloride]	+	+
Cl.O[C@@H]1COC[C@H]1Oc1nc(N2CCNCC2)nc2ccccc12 [Compound AK, 4-[(3R,4R)-(4-Hydroxytetrahydrofuran-3-yl)-oxy]-2-(1-piperazinyl)quinazoline monohydrochloride]	+	+
O[C@@H]1C[C@H](Oc2nc(N3CCNCC3)nc3ccccc23)C[C@@H]1O [Compound AN, 4-[(c-3,c-4-Dihydroxycyclopentan-r-1-yl)oxy]-2-(1-piperazinyl)quinazoline monohydrochloride]	+	+
O[C@@H]1[C@H](O)[C@@H](Oc2nc(N3CCNCC3)nc3ccccc23)C[C@H]1O [Compound AP, 4-[(1S,2S,3S,4R)-(2,3,4-Trihydroxycyclopentan-1-yl)oxy]-2-(1-piperazinyl)quinazoline 1/2 fumarate]	+	+
O[C@@H]1[C@H](O)[C@@H](O)C[C@H]1Oc1nc(N2CCNCC2)nc2ccccc12 [Compound AQ, 4-[(1R,2R,3R,4S)-(2,3,4-Trihydroxycyclopentan-1-yl)oxy]-2-(1-piperazinyl)quinazoline 1/2 fumarate]	+	+
CO[C@@H]1C[C@H](Oc2nc(N3CCNCC3)nc3ccccc23)[C@@H](O)[C@H]1O [Compound AR, 4-[(1S,2S,3R,4R)-(2,3-Dihydroxy-4-methoxy-cyclopentan-1-yl)oxy]-2-(1-piperazinyl)quinazoline 1/2 fumarate]	+	+
CO[C@H]1C[C@@H](Oc2nc(N3CCNCC3)nc3ccccc23)[C@H](O)[C@@H]1O [Compound AS, 4-[(1R,2R,3S,4S)-(2,3-Dihydroxy-4-methoxy-cyclopentan-1-yl)oxy]-2-(1-piperazinyl)quinazoline 1/2 fumarate]	+	+
CO[C@H]1C[C@@H](Oc2nc(N3CCNCC3)nc3ccccc23)[C@H](O)[C@@H]1O.Cl [Compound AT, 4-[(1R,2R,3S,4S)-(2,3-Dihydroxy-4-methoxy-cyclopentan-1-yl)oxy]-2-(1-piperazinyl)quinazoline mono-hydrochloride]	+	+
CC(=O)O.OCCOc1nc(N2CCNCC2)nc2ccccc12 [Compound BA, 4-[(2-Hydroxyethyl)oxy]-2-(1-piperazinyl)-quinazoline monoacetate]	+	+
CC(=O)O.C[C@H](O)[C@H](C)Oc1nc(N2CCNCC2)nc2ccccc12 [Compound BD, 4-[(2S,3S)-(3-Hydroxybutan-2-yl)oxy]-2-(1-piperazinyl)quinazoline monoacetate]		+
CC(=O)O.C[C@@H](O)[C@@H](C)Oc1nc(N2CCNCC2)nc2ccccc12 [Compound BE, 4-[(2R,3R)-(3-Hydroxybutan-2-yl)oxy]-2-(1-piperazinyl)quinazoline monoacetate]		+
C[C@H](O)[C@@H](O)COc1nc(N2CCNCC2)nc2ccccc12.Cl [Compound BG, 4-[(2S,3S)-(2,3-Dihydroxybutan-1-yl)oxy]-2-(1-piperazinyl)quinazoline monohydrochloride]	+	+
C[C@@H](O)[C@H](O)COc1nc(N2CCNCC2)nc2ccccc12.Cl [Compound BH, 4-[(2R,3R)-(2,3-Dihydroxybutan-1-yl)oxy]-2-(1-piperazinyl)quinazoline monohydrochloride]	+	+
